# According to patent US7855205B2, “Pyrimidinyl substituted fused-pyrrolyl compounds useful in treating kinase disorders” (Janssen Pharmaceutica NV, priority 2004, dated 2010):
# What was measured:
# CDK1:Cyclin-B = biological target: T1, CDK1:Cyclin-B (Homo sapiens, UniProt P06493); experiment: CDK1 Screening Assay; assay type: biochemical; conditions: 33P-γ-ATP incorporation, 10 μM ATP
# T1 construct: purchased New England Biolabs, Beverly, Mass; 6020; host or cells: insect cells
# How it was run: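 Human CDK1/cyclin B co-expressed in insect cells (30 ng/well) in 50 mM Tris pH 8, 10 mM MgCl2, with 10 μM ATP, 33P-γ-ATP and 0.025 μM biotinylated histone H1 peptide (reaction-mix levels); 1% DMSO final. 1 h at 30° C. 33P incorporation into streptavidin-captured peptide by scintillation counting.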
# VEGF-R2 = biological target: T2, VEGF-R2 (Rattus norvegicus, UniProt O08775); experiment: VEGF-R2 Screening Assay; assay type: biochemical; conditions: 33P-γ-ATP incorporation, 10 μM ATP
# T2 construct: polyhistidine (N)
# T2 sequence (O08775 786-1343): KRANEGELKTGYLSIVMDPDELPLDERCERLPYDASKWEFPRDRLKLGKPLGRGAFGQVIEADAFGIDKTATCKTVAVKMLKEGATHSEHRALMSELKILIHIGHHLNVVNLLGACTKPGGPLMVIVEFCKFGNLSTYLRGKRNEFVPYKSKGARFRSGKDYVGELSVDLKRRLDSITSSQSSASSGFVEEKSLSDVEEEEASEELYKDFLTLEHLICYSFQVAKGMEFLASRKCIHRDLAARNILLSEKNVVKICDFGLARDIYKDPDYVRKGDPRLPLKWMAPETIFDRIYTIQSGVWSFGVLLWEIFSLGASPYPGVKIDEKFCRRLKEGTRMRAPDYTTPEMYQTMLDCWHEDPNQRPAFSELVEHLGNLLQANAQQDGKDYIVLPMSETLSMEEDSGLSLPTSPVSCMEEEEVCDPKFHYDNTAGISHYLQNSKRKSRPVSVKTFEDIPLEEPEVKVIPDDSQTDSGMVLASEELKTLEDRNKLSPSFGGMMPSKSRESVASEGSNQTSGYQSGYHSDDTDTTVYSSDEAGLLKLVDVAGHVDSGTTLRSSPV
# How it was run: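 The N-terminally His-tagged rat VEGF-R2 kinase domain (aa 786-1343), diluted in 50 mM Tris-HCl pH 8.0 with 0.1% BSA, phosphorylated a biotinylated histone-H1 peptide with 33P-γ-ATP on Flashplates for 1 h at 30 °C in 1% DMSO. After washes with EDTA/PBS, immobilized 33P was counted by scintillation.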
# Aurora-A = biological target: T3, Aurora-A (Mus musculus, UniProt P97477); experiment: Aurora-A Screening Assay; assay type: biochemical, murine; conditions: 33P-γ-ATP incorporation, 10 μM ATP
# T3 construct: made in house; host or cells: sf9 insect cells
# T3 sequence (P97477 1-395): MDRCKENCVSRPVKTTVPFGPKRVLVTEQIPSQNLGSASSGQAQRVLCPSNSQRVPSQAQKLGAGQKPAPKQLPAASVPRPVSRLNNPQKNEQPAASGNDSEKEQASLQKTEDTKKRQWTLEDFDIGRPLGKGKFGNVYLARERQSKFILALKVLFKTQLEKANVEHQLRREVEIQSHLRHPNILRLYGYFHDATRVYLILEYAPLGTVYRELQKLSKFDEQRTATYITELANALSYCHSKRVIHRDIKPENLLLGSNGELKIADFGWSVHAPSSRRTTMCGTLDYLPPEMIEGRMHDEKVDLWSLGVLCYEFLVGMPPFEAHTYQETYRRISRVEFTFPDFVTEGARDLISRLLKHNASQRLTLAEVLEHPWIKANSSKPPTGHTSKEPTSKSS
# RET = biological target: T4, RET (Homo sapiens, UniProt P07949); experiment: RET Kinase Screening Assay; assay type: biochemical; conditions: 33P-γ-ATP incorporation, 10 μM ATP
# T4 construct: the RET cytoplasmic domain consisting of the last 492 amino acids of the intracellular domain of the RET tyrosine kinase; histidine tag (N); made in house; host or cells: Hi5 insect cells
# T4 sequence (P07949 658-1114 limits assumed): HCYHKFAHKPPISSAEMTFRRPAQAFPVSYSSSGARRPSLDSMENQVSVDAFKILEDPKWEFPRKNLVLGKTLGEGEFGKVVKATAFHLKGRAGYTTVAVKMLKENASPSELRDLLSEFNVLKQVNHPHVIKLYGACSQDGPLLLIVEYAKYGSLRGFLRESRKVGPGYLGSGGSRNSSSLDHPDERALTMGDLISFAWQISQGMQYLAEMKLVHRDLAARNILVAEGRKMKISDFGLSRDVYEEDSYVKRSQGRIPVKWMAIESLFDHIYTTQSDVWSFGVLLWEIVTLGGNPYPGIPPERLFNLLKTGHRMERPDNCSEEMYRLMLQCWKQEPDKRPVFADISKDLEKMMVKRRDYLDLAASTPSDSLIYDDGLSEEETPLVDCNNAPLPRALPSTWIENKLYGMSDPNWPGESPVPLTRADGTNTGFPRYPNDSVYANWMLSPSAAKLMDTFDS
# [1] = tested on: HeLa cervical adenocarcinoma; experiment: Inhibition of cell proliferation (14C-thymidine incorporation), HeLa; assay type: cell-based; conditions: Homo sapiens;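 further: HeLa cells in 96-well scintillating plates, compound for 24 h then 24 h more with 14C-thymidine, counting label built into new DNA against DMSO-only control wells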
# HCT-116 colon carcinoma = experiment: Inhibition of cell proliferation (14C-thymidine incorporation), HCT-116; assay type: cell-based; conditions: Homo sapiens, HCT-116, HCT116
# How it was run: (§1)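 Cells (3000-8000/well) grown 24 h at 37° C, 5% CO2, then given compound in DMSO for 24 h before adding methyl 14C-thymidine (0.2 uCi/well) for a further 24 h with drug. After PBS washes, incorporation into DNA counted by scintillation.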
# A375 malignant melanoma = experiment: Inhibition of cell proliferation (14C-thymidine incorporation), A375; assay type: cell-based, human; conditions: Homo sapiens, A-375
# How it was run: as §1
# T1 sequence (P06493 whole entry): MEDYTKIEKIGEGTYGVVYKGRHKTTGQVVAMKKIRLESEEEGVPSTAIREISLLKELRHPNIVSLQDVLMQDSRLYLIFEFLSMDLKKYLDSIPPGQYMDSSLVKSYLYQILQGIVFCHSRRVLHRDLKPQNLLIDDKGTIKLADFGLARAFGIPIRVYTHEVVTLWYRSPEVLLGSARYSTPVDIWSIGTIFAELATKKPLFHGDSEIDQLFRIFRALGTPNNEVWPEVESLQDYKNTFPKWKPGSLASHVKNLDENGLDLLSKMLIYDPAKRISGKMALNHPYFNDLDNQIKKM
# T1 sequence (P14635 whole entry partner): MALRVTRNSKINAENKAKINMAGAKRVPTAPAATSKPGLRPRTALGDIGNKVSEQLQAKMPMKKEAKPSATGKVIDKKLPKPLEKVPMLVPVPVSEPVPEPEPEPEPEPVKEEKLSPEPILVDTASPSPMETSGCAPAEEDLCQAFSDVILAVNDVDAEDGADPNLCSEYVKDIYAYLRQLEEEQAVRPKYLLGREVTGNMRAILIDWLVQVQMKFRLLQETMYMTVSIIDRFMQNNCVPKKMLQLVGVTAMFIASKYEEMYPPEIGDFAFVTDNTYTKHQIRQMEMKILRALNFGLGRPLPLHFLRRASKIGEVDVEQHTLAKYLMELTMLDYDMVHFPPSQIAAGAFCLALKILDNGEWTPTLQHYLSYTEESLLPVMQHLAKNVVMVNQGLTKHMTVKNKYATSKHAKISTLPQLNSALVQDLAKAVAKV
structure (smiles),measurement,setting,value
"Cc1cc(CCN2CCCCC2)ccc1Nc1nccc(-c2c[nH]c3ncccc23)n1 [Cpd 50, {4-[2-(Piperidin-1-yl)ethyl]-2-methylphenyl}-[4-(1H-pyrrolo[2,3-b]pyridin-3-yl)-pyrimidin-2-yl]-amine]",IC50,CDK1:Cyclin-B,0.0011 µM
same,IC50,VEGF-R2,0.959 µM
same,IC50,Aurora-A,0.902 µM
same,IC50,RET,3.07 µM
same,IC50,[1],0.00268 µM
same,IC50,HCT-116 colon carcinoma,0.00283 µM
same,IC50,A375 malignant melanoma,0.00284 µM
"CN(C)c1ccc(Nc2nccc(-c3c[nH]c4ncccc34)n2)cc1 [Cpd 38, (4-Dimethylaminophenyl)-[4-(1H-pyrrolo[2,3-b]pyridin-3-yl)-pyrimidin-2-yl]-amine]",IC50,CDK1:Cyclin-B,0.0096 µM
same,IC50,VEGF-R2,0.081 µM
same,IC50,Aurora-A,0.112 µM
same,IC50,RET,0.821 µM
same,IC50,[1],0.0358 µM
same,IC50,HCT-116 colon carcinoma,0.0216 µM
same,IC50,A375 malignant melanoma,0.0494 µM
"c1cnc2[nH]cc(-c3ccnc(NC4CCNCC4)n3)c2c1 [Cpd 65, Piperidin-4-yl-[4-(1H-pyrrolo[2,3-b]pyridin-3-yl)pyrimidin-2-yl]-amine]",IC50,CDK1:Cyclin-B,0.0603 µM
same,IC50,VEGF-R2,1.07 µM
same,IC50,Aurora-A,1.3 µM
same,IC50,RET,1.23 µM
same,IC50,[1],0.0269 µM
same,IC50,HCT-116 colon carcinoma,0.015 µM
same,IC50,A375 malignant melanoma,0.0218 µM
CN(C)CCc1ccc(Nc2nccc(-c3c[nH]c4ncccc34)n2)c(Cl)c1 [Cpd 54],IC50,CDK1:Cyclin-B,0.0612 µM
same,IC50,VEGF-R2,2.31 µM
same,IC50,Aurora-A,0.908 µM
same,IC50,RET,4.06 µM
same,IC50,[1],0.281 µM
same,IC50,HCT-116 colon carcinoma,0.269 µM
same,IC50,A375 malignant melanoma,0.215 µM
"CCOc1ccc(Nc2nccc(-c3c[nH]c4ncccc34)n2)cc1 [Cpd 40, (4-Ethoxyphenyl)-[4-(1H-pyrrolo[2,3-b]pyridin-3-yl)-pyrimidin-2-yl]-amine]",IC50,CDK1:Cyclin-B,0.01 µM
same,IC50,VEGF-R2,0.149 µM
same,IC50,Aurora-A,0.084 µM
same,IC50,RET,1 µM
same,IC50,[1],0.0662 µM
same,IC50,HCT-116 colon carcinoma,0.0244 µM
same,IC50,A375 malignant melanoma,0.0565 µM
"Clc1ccc(Nc2nccc(-c3c[nH]c4ncccc34)n2)cc1 [Cpd 11, (4-Chloro-phenyl)-[4-(1-H-pyrrolo[2,3-b]pyridin-3-yl)-pyrimidin-2-yl]-amine]",IC50,CDK1:Cyclin-B,0.0696 µM
same,IC50,VEGF-R2,~1 µM
same,IC50,Aurora-A,~1 µM
same,IC50,RET,> 10 µM
same,IC50,[1],1.01 µM
same,IC50,HCT-116 colon carcinoma,0.56 µM
same,IC50,A375 malignant melanoma,0.97 µM
"COc1ccccc1Nc1nccc(-c2c[nH]c3ncccc23)n1 [Cpd 7, (2-Methoxy-phenyl)-[4-(1H-pyrrolo[2,3-b]pyridin-3-yl)-pyrimidin-2-yl]-amine]",IC50,CDK1:Cyclin-B,0.044 µM
same,IC50,VEGF-R2,0.82 µM
same,IC50,Aurora-A,0.497 µM
same,IC50,RET,> 10 µM
same,IC50,[1],0.35 µM
same,IC50,HCT-116 colon carcinoma,0.29 µM
same,IC50,A375 malignant melanoma,0.35 µM
"Nc1ccc(Nc2nccc(-c3c[nH]c4ncccc34)n2)cc1 [Cpd 37, (4-Aminophenyl)-[4-(1H-pyrrolo[2,3-b]pyridin-3-yl)-pyrimidin-2-yl]-amine]",IC50,CDK1:Cyclin-B,0.035 µM
same,IC50,VEGF-R2,0.211 µM
same,IC50,Aurora-A,0.386 µM
same,IC50,RET,1.62 µM
same,IC50,[1],0.194 µM
same,IC50,HCT-116 colon carcinoma,0.0828 µM
same,IC50,A375 malignant melanoma,0.185 µM
"Cc1cccc(C)c1Nc1nccc(-c2c[nH]c3ncccc23)n1 [Cpd 35, (2,6-Dimethylphenyl)-[4-(1H-pyrrolo[2,3-b]pyridin-3-yl)-pyrimidin-2-yl]-amine]",IC50,CDK1:Cyclin-B,0.017 µM
same,IC50,VEGF-R2,0.975 µM
same,IC50,Aurora-A,0.556 µM
same,IC50,RET,1 µM
same,IC50,[1],0.0903 µM
same,IC50,HCT-116 colon carcinoma,0.0331 µM
same,IC50,A375 malignant melanoma,0.0369 µM
"Clc1cc(CCN2CCOCC2)ccc1Nc1nccc(-c2c[nH]c3ncccc23)n1 [Cpd 56, {2-Chloro-4-[2-(morpholin-4-yl)ethyl]phenyl}-[4-(1H-pyrrolo[2,3-b]pyridin-3-yl)-pyrimidin-2-yl]-amine]",IC50,CDK1:Cyclin-B,0.105 µM
same,IC50,VEGF-R2,1.04 µM
same,IC50,Aurora-A,0.859 µM
same,IC50,RET,1.24 µM
same,IC50,[1],1.1 µM
same,IC50,HCT-116 colon carcinoma,0.774 µM
same,IC50,A375 malignant melanoma,0.727 µM
"Cc1cc(CCN2CCOCC2)ccc1Nc1nccc(-c2c[nH]c3ncccc23)n1 [Cpd 49, {4-[2-(Morpholin-4-yl)ethyl]-2-methylphenyl}-[4-(1H-pyrrolo[2,3-b]pyridin-3-yl)-pyrimidin-2-yl]-amine]",IC50,CDK1:Cyclin-B,0.00196 µM
same,IC50,VEGF-R2,0.75 µM
same,IC50,Aurora-A,0.333 µM
same,IC50,RET,2.28 µM
same,IC50,[1],0.00252 µM
same,IC50,HCT-116 colon carcinoma,0.00294 µM
same,IC50,A375 malignant melanoma,0.00282 µM
